Experimental data as given in patent US8404738B2 (Hoffmann-La Roche Inc., priority 2011, dated 2013).
pEC50, pIC50: −log10 of the molar value.

Legend:
[1] = system: p21 promoter-luciferase construct; assay: p21 reporter gene induction (HeLa cells, p21 promoter-luciferase construct); details: for p21 RP3: relative gene level of p21 compared to MS275 at 3 μM; for p21 RP10: relative level of p21 compared to MS275 at 10 μM; for p21 RP30: relative level of p21 compared to MS275 at 30 μM;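 for all read-outs here: transfected HeLa cells exposed to compound for 15 h, luciferase luminescence read from lysates, p21 promoter lacks p53 site, proxy for cellular HDAC1/2/3 inhibition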
HDAC6 = biological target: T1, HDAC6 (Homo sapiens, UniProt Q9UBN7); assay: Tubulin acetylation cytoblot assay (A549 cells); type: cell-based; details: 17-18 h incubation, tubulin acetylation as marker of HDAC6 inhibition, read-out: Tub-Ac EC50
T1 construct: endogenous in cells; host or cells: A549 cells
T1 sequence (Q9UBN7 1-1215): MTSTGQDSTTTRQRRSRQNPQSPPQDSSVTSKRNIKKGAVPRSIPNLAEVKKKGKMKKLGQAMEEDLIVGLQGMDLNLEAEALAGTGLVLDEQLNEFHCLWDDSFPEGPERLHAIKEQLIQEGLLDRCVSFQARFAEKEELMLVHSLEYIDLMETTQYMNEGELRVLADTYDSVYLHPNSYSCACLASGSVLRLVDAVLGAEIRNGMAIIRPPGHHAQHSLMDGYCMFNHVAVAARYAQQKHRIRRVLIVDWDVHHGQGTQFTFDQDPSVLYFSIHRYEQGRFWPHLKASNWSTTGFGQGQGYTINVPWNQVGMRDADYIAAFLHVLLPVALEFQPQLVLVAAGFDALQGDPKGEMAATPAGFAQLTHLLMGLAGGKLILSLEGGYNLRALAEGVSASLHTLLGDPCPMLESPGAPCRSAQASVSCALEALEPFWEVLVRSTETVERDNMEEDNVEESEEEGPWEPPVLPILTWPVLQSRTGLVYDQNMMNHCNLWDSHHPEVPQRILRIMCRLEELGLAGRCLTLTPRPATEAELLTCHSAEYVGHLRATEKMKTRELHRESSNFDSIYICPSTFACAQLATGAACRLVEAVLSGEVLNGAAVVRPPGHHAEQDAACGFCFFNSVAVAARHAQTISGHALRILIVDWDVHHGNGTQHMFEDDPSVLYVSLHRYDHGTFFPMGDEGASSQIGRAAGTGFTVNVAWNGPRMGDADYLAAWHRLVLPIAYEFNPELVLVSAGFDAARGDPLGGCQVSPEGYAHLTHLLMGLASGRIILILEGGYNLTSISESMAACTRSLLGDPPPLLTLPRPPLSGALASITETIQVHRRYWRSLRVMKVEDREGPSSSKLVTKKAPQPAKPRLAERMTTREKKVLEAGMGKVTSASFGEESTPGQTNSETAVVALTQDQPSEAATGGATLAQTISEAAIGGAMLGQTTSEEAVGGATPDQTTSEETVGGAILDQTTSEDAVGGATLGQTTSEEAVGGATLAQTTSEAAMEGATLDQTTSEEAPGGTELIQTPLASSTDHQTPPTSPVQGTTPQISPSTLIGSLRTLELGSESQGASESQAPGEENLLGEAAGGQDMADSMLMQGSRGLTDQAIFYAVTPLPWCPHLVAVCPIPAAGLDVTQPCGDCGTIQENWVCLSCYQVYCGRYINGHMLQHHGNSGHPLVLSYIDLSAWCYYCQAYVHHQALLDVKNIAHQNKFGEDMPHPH
How it was run: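 Cells were exposed to compound for 17-18 h, then fixed with formaldehyde and permeabilized with cold MeOH. They were probed for 4 h at 4° C with anti-acetylated tubulin plus HRP anti-mouse IgG (each 1:750), and read by ECL luminescence. EC50 values came from curves normalized to top and bottom controls.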

recombinant human HDAC8 = biological target: T2, recombinant human HDAC8 (Homo sapiens, UniProt Q9BY41); assay: HDAC8 inhibition: recombinant HDAC8 fluorometric assay; type: biochemical; details: recombinant human HDAC8, substrate Ac-Arg-His-Lys-Lys(ε-acetyl)-AMC; read-out: HDAC8 IC50
T2 construct: made in house; host or cells: insect cells
T2 sequence (Q9BY41 1-377): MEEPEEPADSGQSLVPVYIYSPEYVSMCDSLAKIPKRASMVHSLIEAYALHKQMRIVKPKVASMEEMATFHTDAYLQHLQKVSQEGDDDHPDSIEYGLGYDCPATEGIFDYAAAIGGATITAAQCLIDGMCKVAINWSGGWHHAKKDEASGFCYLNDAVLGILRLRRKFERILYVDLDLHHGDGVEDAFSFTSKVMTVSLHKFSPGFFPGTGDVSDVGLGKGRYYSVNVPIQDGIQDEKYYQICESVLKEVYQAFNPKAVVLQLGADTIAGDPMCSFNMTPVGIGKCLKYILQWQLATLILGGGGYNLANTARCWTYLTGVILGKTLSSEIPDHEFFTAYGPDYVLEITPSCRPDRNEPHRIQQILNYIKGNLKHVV
How it was run: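 Recombinant human HDAC8 from insect cells was preincubated with compound for 15 min at rt, then given Ac-Arg-His-Lys-Lys(ε-acetyl)-AMC substrate for 30 min at rt. IC50 came from normalized percent inhibition with curve fitting.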

Structure (SMILES)	pEC50 (HDAC6)	pIC50 (recombinant human HDAC8)	p21 RP3 [1]	p21 RP10 [1]	p21 RP30 [1]
O=C(NO)c1ccc(NC2CCN(c3ccc4ccccc4c3)C2=O)cc1 (stereo not drawn) [Example 38, N-Hydroxy-4-(1-naphthalen-2-yl-2-oxo-pyrrolidin-3-ylamino)-benzamide]	5.97	5.82	0.50	0.02	−0.02
O=C(NO)c1ccc(NC2CCN(c3cccc4cccnc34)C2=O)cc1 (stereo not drawn) [Example 39, N-Hydroxy-4-(2-oxo-1-quinolin-8-yl-pyrrolidin-3-ylamino)-benzamide]	4.88	6.24	0.29	0.09	0.20
O=C(NO)c1ccc(NC2CCN(C3CCCCC3)C2=O)cc1 (stereo not drawn) [Example 41, 4-(1-Cyclohexyl-2-oxo-pyrrolidin-3-ylamino)-N-hydroxy-benzamide]	5.29	6.08	0.05	0.02	0.02
O=C(NO)c1ccc(NC2CCN(Cc3ccccc3)C2=O)cc1 (stereo not drawn) [Example 42]	4.94	6.19	0.02	0.09	0.34
CC(C)(c1ccccc1Cl)N1CCC(Nc2ccc(C(=O)NO)cc2)C1=O (stereo not drawn) [Example 48, 4-{1-[1-(2-Chloro-phenyl)-1-methyl-ethyl]-2-oxo-pyrrolidin-3-ylamino}-N-hydroxy-benzamide]	5.34	6.17	0.24	0.08	0.23
CC(C)(c1ccc(Cl)cc1)N1CCC(Nc2ccc(C(=O)NO)cc2)C1=O (stereo not drawn) [Example 50, 4-{1-[1-(4-Chloro-phenyl)-1-methyl-ethyl]-2-oxo-pyrrolidin-3-ylamino}-N-hydroxy-benzamide]	5.06	6.17	0.17	0.17	0.53
CC(C)(c1ccc(-c2ccccc2)cc1)N1CCC(Nc2ccc(C(=O)NO)cc2)C1=O (stereo not drawn) [Example 51, 4-[1-(1-Biphenyl-4-yl-1-methyl-ethyl)-2-oxo-pyrrolidin-3-ylamino]-N-hydroxy-benzamide]	5.05	6.04	−0.14	0.60	0.38
CC(C)(c1cccc2ccccc12)N1CCC(Nc2ccc(C(=O)NO)cc2)C1=O (stereo not drawn) [Example 52, N-Hydroxy-4-[1-(1-methyl-1-naphthalen-1-yl-ethyl)-2-oxo-pyrrolidin-3-ylamino]-benzamide]	5.55	5.98	0.14	0.53	0.58
CC(C)(c1ccc2ccccc2c1)N1CCC(Nc2ccc(C(=O)NO)cc2)C1=O (stereo not drawn) [Example 53, N-Hydroxy-4-[1-(1-methyl-1-naphthalen-2-yl-ethyl)-2-oxo-pyrrolidin-3-ylamino]-benzamide]	5.48	6.42	2.37	1.21	0.13
O=C(NO)c1ccc(NC2CCN(C3(c4ccccc4)CCCC3)C2=O)cc1 (stereo not drawn) [Example 55, N-Hydroxy-4-[2-oxo-1-(1-phenyl-cyclopentyl)-pyrrolidin-3-ylamino]-benzamide]	5.32	6.09	0.43	0.20	0.50
O=C(NO)c1ccc(NC2CCN(C3(c4ccccc4)CCCCC3)C2=O)cc1 (stereo not drawn) [Example 56, N-Hydroxy-4-[2-oxo-1-(1-phenyl-cyclohexyl)-pyrrolidin-3-ylamino]-benzamide]	5.55	5.95	0.37	0.07	0.14
CC1(Nc2ccc(C(=O)NO)cc2)CCN(c2ccccc2)C1=O (stereo not drawn) [Example 57, N-Hydroxy-4-(3-methyl-2-oxo-1-phenyl-pyrrolidin-3-ylamino)-benzamide]	5.58	5.53	0.05	0.03	0.01
CC1(Nc2ccc(C(=O)NO)cc2)CCN(c2ccc3ncccc3c2)C1=O (stereo not drawn) [Example 63, N-Hydroxy-4-(3-methyl-2-oxo-1-quinolin-6-yl-pyrrolidin-3-ylamino)-benzamide]	6.44	6.05	0.47	0.15	0.22

Second part, led by results:

pEC50 (HDAC6)	pIC50 (recombinant human HDAC8)	Structure (SMILES)	p21 RP3 [1]	p21 RP10 [1]	p21 RP30 [1]
5.88	6.29	O=C(NO)c1ccc(NC2CCN(c3cccc4ncccc34)C2=O)cc1 (stereo not drawn) [Example 40, N-Hydroxy-4-(2-oxo-1-quinolin-5-yl-pyrrolidin-3-ylamino)-benzamide]	0.25	0.26	0.21
5.20	6.15	C[C@H](c1ccccc1)N1CCC(Nc2ccc(C(=O)NO)cc2)C1=O (stereo partly drawn) [Example 44]	−0.10	0.03	0.10
5.08	6.19	C[C@H](c1ccccc1)N1CCC(Nc2ccc(C(=O)NO)cc2)C1=O (stereo partly drawn) [Example 45]	−0.19	0.02	0.13
5.01	6.31	CC(C)(c1cccc(Cl)c1)N1CCC(Nc2ccc(C(=O)NO)cc2)C1=O (stereo not drawn) [Example 49, 4-{1-[1-(3-Chloro-phenyl)-1-methyl-ethyl]-2-oxo-pyrrolidin-3-ylamino}-N-hydroxy-benzamide]	0.41	0.50	0.85
6.00	6.04	CC1(Nc2ccc(C(=O)NO)cc2)CCN(c2cccc(F)c2)C1=O (stereo not drawn) [Example 58, 4-[1-(3-Fluoro-phenyl)-3-methyl-2-oxo-pyrrolidin-3-ylamino]-N-hydroxy-benzamide]	0.50	0.13	0.07
6.52	6.80	CC1(Nc2ccc(C(=O)NO)cc2)CCN(c2cccc(Cl)c2)C1=O (stereo not drawn) [Example 59, 4-[1-(3-Chloro-phenyl)-3-methyl-2-oxo-pyrrolidin-3-ylamino]-N-hydroxy-benzamide]	0.23	0.22	0.24
5.08	5.85	CC1(Nc2ccc(C(=O)NO)cc2)CCN(c2cnc3ccccc3c2)C1=O (stereo not drawn) [Example 61, N-Hydroxy-4-(3-methyl-2-oxo-1-quinolin-3-yl-pyrrolidin-3-ylamino)-benzamide]	0.46	0.09	0.17
5.71	6.15	CC1(Nc2ccc(C(=O)NO)cc2)CCN(c2cccc3cccnc23)C1=O (stereo not drawn) [Example 62, N-Hydroxy-4-(3-methyl-2-oxo-1-quinolin-8-yl-pyrrolidin-3-ylamino)-benzamide]	0.55	0.11	0.20
